Test results reported in patent publication US20240043439A1, “COMPOUNDS AS C5AR INHIBITORS” (Kira Pharmaceuticals (Suzhou) Ltd., priority 2020, published 2024).

Assays:
C5aR [1] = target: T1, C5aR (Homo sapiens (Human), UniProt P21730); experiment: Inhibition of C5a-C5aR binding determined by cell migration assay (U937/C5aR cells); format: cell-based; settings: U937/C5aR cell migration towards human C5a, 180 min
Method: Migration assay was performed by using polycarbonate membrane with 3.0 µm pore (Corning). U937/C5aR cells were collected and washed twice by PBS; cells were suspended in Hank's balanced salt solution (HBSS)+1% FBS buffer at the density of 6×10^6 cells/ml. Cells were premixed with compound and added to insert well, ligand human C5a and compound were added to bottom well in order, gently mix, incubate for 30 min at 37° C., […]. Put insert plate into bottom well, migrate for 180 min at 37° C., […]. Gently remove the insert well, add 50 μl CellTiter-Glo (Promega), gently shaking for 5 min at room temperature, transfer 150 μl mixture to black plate and read luminescence intensity by
microplate reader (BioTek).

[2] = test system: C5a induced CD11b upregulation on neutrophil; experiment: Neutrophil CD11b FACS assay, human C5aR knock-in mice whole blood after oral pre-dosing; format: in vivo; settings: oral pre-dosing 0.3 mg/kg and 3 mg/kg
Method: (§1) Peripheral blood samples were collected from Cynomolgus monkey/huC5aR knock-in mice at indicated timepoints. 100 μl aliquots were mixed with a range of C5a concentrations and incubated at 37° C. for 30 min. Blood was cooled down on wet ice for at least 3 min, anti-CD11b monoclonal antibody (BD Biosciences) was added and incubated at 4° C. for 60 min. Red blood cells were lysed by adding erythrocyte lysis buffer (Solarbio) and incubated on ice for 10 min, white blood cells were washed by pre-cold PBS twice and suspended by 2% PFA/PBS buffer. Neutrophils were classified with flow cytometry by their forward/side-scatter properties and mean fluorescence intensity of anti-CD11b staining on cells was read by FACS (Beckman).
(§2) Whole blood was collected at indicated timepoints (2 hours or 12 hours after dosing compound) and further stimulated with human C5a in vitro. CD11b FACS antibody was added and incubate for 60 min at 4 C before red blood cells were lysed. The percent of CD11b signal was calculated by the formula %=(MFI[C5a conc.]-MFI[C5a=0])/(MFI[max]-MFI[C5a=0])×100%. Each data point was the average SD of 3 individual mice.
as §2, with “2 hrs” for “indicated timepoints (2 hours or 12 hours”, “compound” for “compound)”, “average” for “average SD”, “2” for “3”
as §2, with “2 hrs” for “indicated timepoints (2 hours or 12 hours”, “compound” for “compound)”, “average±SD” for “average SD”, “2” for “3”

[3] = target: human C5a receptor (C5aR) (Homo sapiens (Human), UniProt P21730); experiment: Inhibition of C5a-C5aR binding (biotinylated human C5a, U937/C5aR cells, FACS)
How it was run: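 Binding read by flow cytometry as FITC-streptavidin signal (30 min on ice) on washed cells after a 120 min on-ice incubation of compound with biotinylated human C5a (30 nM working solution). Cells used were C5aR-transfected U937, suspended at 3×10^6 cells/ml in PBS containing 0.1% BSA.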

C5aR [4] = target: T1, C5aR; experiment: Calcium mobilization (U937/C5aR or HEK293/C5aR cells, FLIPR); format: cell-based; settings: agonist human C5a at EC80, FLIPR
How it was run: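 FLIPR calcium-flux read-out using Fluo-4 Direct-loaded C5aR-expressing U937 or HEK293 cells stimulated with human C5a at its EC80. Compound was applied for 60 min before dye loading (50 min at 37 °C plus 10 min at room temperature) and agonist addition.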

[5] = test system: human C5a (hC5a) induced neutropenia; experiment: C5a induced neutropenia in a cynomolgus model; format: in vivo; settings: cynomolgus monkey, pre-dosed 4 hours before hC5a, compared to vehicle
Method: (§3) To study the efficacy of compounds in a non-human primate model, human C5a (hC5a) induced neutropenia is studied in a cynomolgus model. Intravenous injection of hC5a induced upregulation of adhesion molecules on blood vessel walls, leading to decreased neutrophils in the blood stream and attached to the vascular walls. Monkeys were pre-dosed with vehicle or specific compound, and 4 hours later, hC5a (10 g/kg, ACROBiosystems) was administrated and 1 minute later neutrophils are quantified in peripheral blood.
The percent change in the number of neutrophils in the blood collected after C5a injection (241 min) was calculated relative to the sample collected prior to C5a injection (239 min). The plasma concentration of each compound was calculated as the average concentration prior to C5a injection of 2 individual monkeys.

[6] = test system: C5a induced CD11b upregulation on granulocytes; experiment: Neutrophil CD11b FACS assay, cyno monkey whole blood after oral pre-dosing; format: in vivo; settings: oral pre-dosing at 10 mg/kg; for EC50 at 10 mg/kg: Macaca fascicularis, Neutrophil, read-out: EC50 (C5a induced CD11b upregulation on granulocytes ex-vivo)
Method: as §1
The percent of CD11b signal was calculated by the formula %=(MFI[C5a conc.]-MFI[C5a=0])/(MFI[max]-MFI[C5a=0])×100%. Each data point was the average of 2 individual monkeys. The plasma concentration of each compound is the average concentration prior to C5a injection of 2 individual monkeys.

[7] = test system: human C5a induced neutropenia; experiment: C5a induced neutropenia in human C5aR knock-in mice model; format: in vivo; settings: 0.3 mg/kg and 3 mg/kg, pre-dosed 2 hours before hC5a
Method: as §3, with “an animal” for “a non-human primate”, “C5aR knock-in mice were created by replacing the coding region of mouse C5aR with human C5aR coding sequence.” for “C5a (hC5a) induced neutropenia is studied in a cynomolgus model.”, “Human C5aR knock-in mice” for “Monkeys”, “2” for “4”, “human C5a ([…]” for “hC5a (10”
The percent change in the number of neutrophils in the blood collected after C5a injection (121 min), relative to the sample collected prior to C5a injection (119 min). The plasma concentration of each compound is the average concentration prior to C5a injection of 3 individual mice.

Sequence of human C5a receptor (C5aR) (P21730 whole entry): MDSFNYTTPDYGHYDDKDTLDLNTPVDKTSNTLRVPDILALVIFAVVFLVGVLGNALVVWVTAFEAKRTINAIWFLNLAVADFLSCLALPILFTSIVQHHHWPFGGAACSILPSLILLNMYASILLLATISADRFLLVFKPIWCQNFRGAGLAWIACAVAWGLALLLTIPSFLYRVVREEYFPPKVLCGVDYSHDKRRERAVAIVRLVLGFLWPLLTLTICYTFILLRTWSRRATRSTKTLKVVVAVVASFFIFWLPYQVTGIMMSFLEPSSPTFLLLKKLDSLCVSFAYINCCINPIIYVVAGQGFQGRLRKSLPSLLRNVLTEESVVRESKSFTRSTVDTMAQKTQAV
T1 sequence (P21730 whole entry): as above

Cc1cccc(F)c1C(=O)N1[C@@H]2CCC[C@@H]2C[C@H](C(=O)Nc2ccc3c(cnn3C)c2)[C@@H]1c1ccc(NC2CCOCC2)cc1 [Compound 89, (2R,3S,4aR,7aR)-1-(2-fluoro-6-methylbenzoyl)-N-(1-methyl-1H-indazol-5-yl)-2-(4-((tetrahydro-2H-pyran-4-yl)amino)phenyl)octahydro-1H-cyclopenta[b]pyridine-3-carboxamide]
IC50 (C5aR [1]): < 0.05 µM | CD11b upregulation on neutrophil ([2]; 2 hours after dosing): blocked | IC50 [3]: < 0.05 µM | IC50 (C5aR [4]): 0.5 to 2 µM

Cc1ccc(NC(=O)[C@H]2C[C@H]3CCC[C@H]3N(C(=O)c3c(C)cccc3F)[C@H]2c2ccc(NC3CCCC3)cc2)cc1C(F)(F)F [Compound 47, (2R,3S,4aR,7aR)-2-(4-(cyclopentylamino)phenyl)-1-(2-fluoro-6-methylbenzoyl)-N-(4-methyl-3-(trifluoromethyl)phenyl)octahydro-1H-cyclopenta[b]pyridine-3-carboxamide]
IC50 (C5aR [1]): < 0.05 µM | CD11b upregulation on neutrophil ([2]; 2 hours after dosing): blocked | IC50 [3]: 0.05 to 0.5 µM | rescue of neutropenia induced by human C5a [5]: effectively rescued the neutropenia | IC50 (C5aR [4]): < 0.05 µM | EC50 at 10 mg/kg [6]: 0.276 µM | C5a induced CD11b upregulation on granulocytes ex-vivo [6]: blocked

Cc1cccc(F)c1C(=O)N1[C@@H]2CCC[C@@H]2C[C@H](C(=O)Nc2ccc3c(cnn3C)c2)[C@@H]1c1ccc(NC2CCCC2)cc1 [Compound 49, (2R,3S,4aR,7aR)-2-(4-(cyclopentylamino)phenyl)-1-(2-fluoro-6-methylbenzoyl)-N-(1-methyl-1H-indazol-5-yl)octahydro-1H-cyclopenta[b]pyridine-3-carboxamide]
IC50 (C5aR [1]): < 0.05 µM | CD11b upregulation on neutrophil ([2]; 2 hours after dosing): blocked | CD11b upregulation on neutrophil ([2]; 2 hours and 12 hours post-dosing): blocked | IC50 [3]: < 0.05 µM | rescue of neutropenia induced by human C5a [5]: effectively rescued the neutropenia | rescue of neutropenia induced by human C5a [7]: effectively rescued the neutropenia | IC50 (C5aR [4]): 0.5 to 2 µM | EC50 at 10 mg/kg [6]: 0.256 µM | C5a induced CD11b upregulation on granulocytes ex-vivo [6]: blocked

Cc1cccc(F)c1C(=O)N1[C@@H]2CCC[C@@H]2C[C@H](C(=O)Nc2cccc(S(C)(=O)=O)c2)[C@@H]1c1ccc(NC2CCCC2)cc1 (racemic) [Compound 70, cis-2-(4-(cyclopentylamino)phenyl)-1-(2-fluoro-6-methylbenzoyl)-N-(3-(methylsulfonyl)phenyl)octahydro-1H-cyclopenta[b]pyridine-3-carboxamide]
IC50 (C5aR [1]): 0.5 to 2 µM | IC50 [3]: 0.5 to 2 µM | IC50 (C5aR [4]): 2 to 10 µM

Cc1ccc(NC(=O)C2C[C@H]3CCC[C@H]3N(C(=O)c3cncnc3)C2c2ccc(NC3CCCC3)cc2)cc1C(F)(F)F (relative stereo) [Compound 115, cis-2-(4-(cyclopentylamino)phenyl)-N-(4-methyl-3-(trifluoromethyl)phenyl)-1-(pyrimidine-5-carbonyl)octahydro-1H-cyclopenta[b]pyridine-3-carboxamide]
IC50 (C5aR [1]): 0.05 to 0.5 µM | IC50 [3]: 0.05 to 0.5 µM | IC50 (C5aR [4]): > 10 µM

Cc1cccc(F)c1C(=O)N1[C@@H]2COC[C@@H]2C[C@H](C(=O)Nc2ccc3c(ccn3C)c2)[C@@H]1c1ccc(NC2CCCC2)cc1 [Compound 139, (2R,3S,4aR,7aS)-2-(4-(cyclopentylamino)phenyl)-1-(2-fluoro-6-methylbenzoyl)-N-(1-methyl-1H-indol-5-yl)octahydrofuro[3,4-b]pyridine-3-carboxamide]
IC50 (C5aR [1]): 0.05 to 0.5 µM | IC50 [3]: < 0.05 µM | IC50 (C5aR [4]): 2 to 10 µM

Cc1ccc(NC(=O)C2C[C@@H]3COC[C@@H]3N(C(=O)c3c(C)cccc3F)C2c2ccc(NC3CCCC3)cc2)cc1C(F)(F)F (relative stereo) [Compound 118, cis-2-(4-(cyclopentylamino)phenyl)-1-(2-fluoro-6-methylbenzoyl)-N-(4-methyl-3-(trifluoromethyl)phenyl)octahydrofuro[3,4-b]pyridine-3-carboxamide]
IC50 (C5aR [1]): < 0.05 µM | IC50 [3]: < 0.05 µM | IC50 (C5aR [4]): 0.05 to 0.5 µM

Cc1cccc(F)c1C(=O)N1[C@@H]2CCC[C@@H]2C[C@H](C(=O)Nc2ccc3[nH]ncc3c2)[C@@H]1c1ccc(NC2CCOCC2)cc1 [Compound 96, (2R,3S,4aR,7aR)-1-(2-fluoro-6-methylbenzoyl)-N-(1H-indazol-5-yl)-2-(4-((tetrahydro-2H-pyran-4-yl)amino)phenyl)octahydro-1H-cyclopenta[b]pyridine-3-carboxamide]
IC50 (C5aR [1]): 0.05 to 0.5 µM | IC50 [3]: < 0.05 µM | IC50 (C5aR [4]): 2 to 10 µM

Cc1ccc(NC(=O)[C@H]2CC[C@@H]3CCc4cccc(F)c4C(=O)N3C2c2ccc(NC3CCCC3)cc2)cc1C(F)(F)F (relative stereo) [Compound 41, cis-4-(4-(cyclopentylamino)phenyl)-7-fluoro-N-(4-methyl-3-(trifluoromethyl)phenyl)-6-oxo-1,2,3,4,6,11,12,12a-octahydrobenzo[e]pyrido[1,2-a]azepine-3-carboxamide]
IC50 (C5aR [1]): 0.05 to 0.5 µM | IC50 [3]: 0.5 to 2 µM | IC50 (C5aR [4]): 2 to 10 µM

Cc1cccc(F)c1C(=O)N1[C@@H]2CCC[C@@H]2C[C@H](C(=O)Nc2ccc(N(C)C)cc2)[C@@H]1c1ccc(NC2CCOCC2)cc1 [Compound 94, (2R,3S,4aR,7aR)-N-(4-(dimethylamino)phenyl)-1-(2-fluoro-6-methylbenzoyl)-2-(4-((tetrahydro-2H-pyran-4-yl)amino)phenyl)octahydro-1H-cyclopenta[b]pyridine-3-carboxamide]
IC50 (C5aR [1]): 0.05 to 0.5 µM | IC50 [3]: < 0.05 µM | IC50 (C5aR [4]): 2 to 10 µM

Cc1cccc(F)c1C(=O)N1[C@@H]2CCC[C@@H]2C[C@H](C(=O)Nc2cnn(C)c2)[C@@H]1c1ccc(NC2CCCC2)cc1 [Compound 54, (2R,3S,4aR,7aR)-2-(4-(cyclopentylamino)phenyl)-1-(2-fluoro-6-methylbenzoyl)-N-(1-methyl-1H-pyrazol-4-yl)octahydro-1H-cyclopenta[b]pyridine-3-carboxamide]
IC50 (C5aR [1]): 0.05 to 0.5 µM | IC50 [3]: 0.05 to 0.5 µM | IC50 (C5aR [4]): 2 to 10 µM
